Reference: PMC11173628, “Imidazole Carbamates as a Promising Alternative for Treating Trichomoniasis: In Vitro Effects on the Growth and Gene Expression of Trichomonas vaginalis” (Molecules, 2024)
“Also recorded” adds a separate entry of the source.

Columns and labels:
[1] = tested on: T. vaginalis Donne ATCC 30236 trophozoites; experiment: Determination of IC50 values (anti-Trichomonas activity, trypan blue and XTT); assay type: cell-based, Trichomonas vaginalis; conditions: for IC50: Trichomonas vaginalis, ATCC30236, T. vaginalis Donne ATCC 30236, 24 h, 37 °C, 0–10 µM, trypan blue and XTT, read-out: IC50 (viability of T. vaginalis trophozoites); for Enhancement of trichomonacidal effect in relation to MTZ: ratio of IC50 values vs MTZ; for Enhancement of trichomonacidal effect in relation to NTZ: ratio of IC50 values vs NTZ
Method: Figure 2 Determination of the IC50 values of AGR compounds on the culture of Trichomonas vaginalis. […] The trophozoites were incubated in the presence of the compounds for 24 h at 37 °C with different concentrations of each compound. Values represent the mean ± standard deviation of three independent experiments.
The T. vaginalis Donne ATCC 30236 strain was acquired from the ATCC (American Type Culture Collection). It was cultured axenically in trypticase–yeast extract–maltose medium (TYM, at pH 6.0) supplemented with 10% sterile horse serum (previously inactivated at 56 °C for 30 min) and incubated at 37 °C [42]. The trophozoites were analyzed via motility, morphology, and trypan blue dye exclusion assays (0.4%) under an optical microscope with a magnification of 40×. The parasites were cultured for 24 h at 37 °C, corresponding to the logarithmic growth phase, and were used for anti-Trichomonas assays.
The anti-Trichomonas activity was evaluated in 1.5 mL tubes, where 2.6 × 10^5 trophozoites/mL was treated with increasing concentrations (0–10 µM) of the selected compounds. The tubes were incubated at 37 °C for 24 h. Then the trypan blue dye exclusion and XTT assay tests were used for evaluations of cell viability, as previously described. […] The IC50 values were calculated using GraphPad Prism 8.0 Inc. software, Version 8.0.2 (263) (San Diego, CA, USA).

[2] = In vitro cytotoxicity assay (XTT), Caco-2; conditions: human
Method: (§1) Concentration–response curves for the viability of (A) Caco-2 and (B) HT29 cells treated with increasing concentrations of AGR compounds. […] Cell viability was determined using trypan blue dye exclusion (0.4%) (1:1, v/v) in a Neubauer chamber, as well as an XTT proliferation assay. Values represent the mean ± standard deviation of three independent experiments.
(§2) The Caco-2 and HT29 cell lines were provided by Luz Maria Rocha Ramirez from Hospital Infantil de México Federico Gómez, Secretaría de Salud. Cells were cultured in DMEM medium supplemented with 10% fetal bovine serum, 1% L-glutamine, and 1% penicillin/streptomycin at 37 °C in a 5% CO2 atmosphere. […] After incubation, cell viability was assessed using the XTT assay. The results are expressed as a percentage of viable cells compared with untreated cells. The cytotoxic concentration 50 (CC50) was calculated using GraphPad Prism 7.0 software. […] The assay was performed at least three times in triplicate. The selectivity index (SI) was calculated as SI = cells CC50/trophozoites IC50.

CaCo-2 cells = experiment: In vitro cytotoxicity assay (XTT), Caco-2; conditions: CC50 CaCo-2 / IC50 trophozoites
Method: as §1, §2

[3] = In vitro cytotoxicity assay (XTT), HT29; conditions: human
Method: as §1, §2

HT29 cells = experiment: In vitro cytotoxicity assay (XTT), HT29; conditions: CC50 HT29 / IC50 trophozoites
Method: as §1, §2

[4] = tested on: T. vaginalis trophozoites (metabolic gene transcripts); experiment: Relative gene expression of T. vaginalis in presence of compounds (RT-qPCR, 2^-ΔΔCt, PK reference gene); assay type: cell-based, Trichomonas vaginalis; conditions: 24 h at IC50 concentration; for Increase of PFK transcripts: vs untreated control
Method: The main carbon and energy source for T. vaginalis is the fermentative carbohydrate metabolism. We sought to determine whether the death of T. vaginalis is related to changes in its metabolic genes. A gene expression assay based on RT-qPCR was performed to evaluate the transcription levels of several genes in T. vaginalis trophozoites that were incubated for 24 h at the IC50 concentration for each compound.
To evaluate the expression levels of the genes involved in the metabolism of T. vaginalis in the absence and presence of trichomonacidal compounds, the genetic expression levels of 15 genes were analyzed by means of real-time RT-qPCR. To this end, genes encoding enzymes involved in essential metabolic pathways for cell survival, such as glycolysis, the pentose phosphate pathway, structural proteins, and redox maintenance, were identified using the GenBank database (https://www.ncbi.nlm.nih.gov/genbank/ accessed on 15 January 2023) (Table 3).
The total RNA from trophozoites in the absence and presence of the compound was extracted using TRIzol® Reagent (Invitrogen, Carlsbad, CA, USA) according to the manufacturer’s instructions. The quality of RNA was assessed at 260/280 nm, and the integrity was assessed by 2.0% (w/v) agarose gel electrophoresis. For synthesis of the cDNA, samples were treated with 1 U of DNAase I enzyme (Thermo Fisher Scientific, Waltham, MA, USA). cDNA was synthesized using the primers Oligo (dT) 18 (Thermo Fisher Scientific) and RevertAid reverse transcriptase (Thermo Fisher Scientific). All synthesized cDNAs were quantified and stored at −70 °C until use.
We evaluated the expression levels of genes involved in the metabolism of T. vaginalis trophozoites in the absence and presence of trichomonacidal compounds. The amplification of the specific PCR products and the specificity of the primers of the genes proposed in this study (Table 4) were determined using the Fast SYBR® Green Master Mix kit (Applied Biosystems, Foster City, CA, USA) in the StepOnePlusTM Real-Time PCR Systems platform (Life Technologies, Foster City, CA, USA), which was carried out according to the method previously reported by Gutiérrez-Cardona et al..
The relative changes in the expression levels of the target genes (PK, CK, PFK, ALDO, TPI, GAPDH, ENOL, G6PD, 6PGDH, TKT, TALDO, PFOR, NADH, ACT, and TUB) were analyzed by the 2^−ΔΔCt method, using the PK reference gene for normalization. The curve was fitted with GraphPad Prism 8 software (GraphPad Software Inc., La Jolla, CA, USA), and statistical analysis was performed. ANOVA and the Tukey–Kramer test were used to evaluate the relative change in expression after normalization. Three replicates were included for each treatment, and all reactions were performed in triplicate.

[5] = tested on: T. vaginalis trophozoites; experiment: Kinetic growth curve of T. vaginalis in presence of compounds; assay type: cell-based, Trichomonas vaginalis; conditions: compound at its IC50, monitored up to 96 h
Method: The trophozoites were incubated at the IC50 values for each compound. The viability and number of trophozoites were monitored at 6, 12, 18, 24, 48, 72, and 96 h with trypan blue (0.4%) (1:1, v/v) and XTT assays.
To understand the antiparasitic activities of the compounds against T. vaginalis cultures, we produced a curve of the kinetic growth of T. vaginalis as a function of time. […] Trophozoites were observed via light microscopy, and their growth and viability were evaluated at 6, 12, 24, 48, 72, and 96 h.

[6] = Caco-2, CaCo-2 CC50, 48 h, 0–500 µM, XTT
[7] = HT29 cells, HT29 CC50, 48 h, 0–500 µM, XTT

With Cc1ncc([N+](=O)[O-])n1CCOC(=O)Nc1ccc([N+](=O)[O-])cc1 [AGR-5] the IC50 [1] was 1.45 µM, the CC50 at 48 h ([2]; Caco-2) was 580 µM and the “CaCo-2 SI (CC50/IC50)” value (CaCo-2 cells) was 400. For the same molecule, the CC50 at 48 h [3] was 560 µM, the “HT29 SI (CC50/IC50)” value (HT29 cells) was 386 and the “Effect on PFK expression” value [4] was “negatively affected”. The “Expression of NADH oxidase gene” value [4] was “decreased” and the “Overexpression of PFOR” value [4] was 2.5 fold.

Cc1ncc([N+](=O)[O-])n1CCO [MTZ, metronidazole, reference compound] showed an IC50 [1] of 3.1 µM.

With Cc1ncc([N+](=O)[O-])n1CCOC(=O)Nc1ccc(Cl)cc1 [AGR-3] the IC50 [1] was 0.64 µM, the “Enhancement of trichomonacidal effect in relation to MTZ” value (“Enhancement … to MTZ” below) [1] was “fivefold” and the “Enhancement of trichomonacidal effect in relation to NTZ” value (“Enhancement … to NTZ” below) [1] was 10 fold. The CC50 at 48 h [2, 6] was 523 µM, the “CaCo-2 SI (CC50/IC50)” value (CaCo-2 cells) was 817.1 and the CC50 at 48 h [3, 7] was 660 µM. The “HT29 SI (CC50/IC50)” value (HT29 cells) was over 1000, the “Effect on ALDO expression” value [4] was “reduced” and the “Effect on GAPDH expression” value [4] was “reduced”. For the same molecule, the “Effect on PFK expression” value [4] was “negatively affected” and the “Overexpression of PFOR” value [4] was 7.5 fold.

In the case of Cc1ncc([N+](=O)[O-])n1CCOC(=O)Nc1ccccc1 [AGR-2], the IC50 [1] is reported as 0.4 µM, the “Enhancement … to MTZ” value [1] is reported as 8 fold and the “Enhancement … to NTZ” value [1] is reported as 16 fold. For the same molecule, the “Effect on kinetic growth curve of T. vaginalis” value (“Effect on kinetic growth curve” below) [5] was “more significant delay in the logarithmic and stationary phases”, the CC50 at 48 h [2, 6] was 560 µM and the “CaCo-2 SI (CC50/IC50)” value (CaCo-2 cells) was over 1000. For the same molecule, the CC50 at 48 h [3, 7] was 730 µM, the “HT29 SI (CC50/IC50)” value (HT29 cells) was over 1000 and the “Effect on ALDO expression” value [4] was “reduced”. For the same molecule, the “Effect on GAPDH expression” value [4] was “reduced”, the “Expression of NADH oxidase gene” value [4] was “decreased” and the “Overexpression of PFOR” value [4] was 7.5 fold. The “Increase of PFK transcripts” value [4] was 1.5 fold.

In the case of Cc1ncc([N+](=O)[O-])n1CCOC(=O)Nc1ccc(F)cc1 [AGR-4], the IC50 [1] is reported as 0.96 µM, the “Effect on kinetic growth curve” value [5] is reported as “more significant delay in the logarithmic and stationary phases; also recorded: inhibited the growth of the parasite to a greater degree” and the CC50 at 48 h [2, 6] is reported as 510 µM. The “CaCo-2 SI (CC50/IC50)” value (CaCo-2 cells) was 531.2, the CC50 at 48 h [3, 7] was 593 µM and the “HT29 SI (CC50/IC50)” value (HT29 cells) was 617. For the same molecule, the “Decrease in the expression of PFOR” value [4] was 1.5 fold, the “Effect on ALDO expression” value [4] was “reduced” and the “Effect on GAPDH expression” value [4] was “reduced”. The “Effect on PFK expression” value [4] was “negatively affected” and the “Expression of NADH oxidase gene” value [4] was “decreased”.

For CC(=O)Oc1ccccc1C(=O)Nc1ncc([N+](=O)[O-])s1 [NTZ, nitazoxanide, reference compound], the IC50 [1] was 6.62 µM, the “CaCo-2 SI (CC50/IC50)” value (CaCo-2 cells) was 87.6 and the “HT29 SI (CC50/IC50)” value (HT29 cells) was 95.7.

In the case of Cc1ncc([N+](=O)[O-])n1CCOC(=O)NC1CCCCC1 [AGR-1], the IC50 [1] is reported as 0.67 µM, the “Enhancement … to MTZ” value [1] is reported as “fivefold” and the “Enhancement … to NTZ” value [1] is reported as 10 fold. For the same molecule, the “Effect on kinetic growth curve” value [5] was “more significant delay in the logarithmic and stationary phases”, the CC50 at 48 h [2, 6] was 650 µM and the “CaCo-2 SI (CC50/IC50)” value (CaCo-2 cells) was 970.0. For the same molecule, the CC50 at 48 h [3, 7] was 532 µM, the “HT29 SI (CC50/IC50)” value (HT29 cells) was 794 and the “Effect on ALDO expression” value [4] was “increased”. The “Expression of NADH oxidase gene” value [4] was “decreased”, the “Overexpression of PFOR” value [4] was 11 fold and the “Increase of PFK transcripts” value [4] was 1.2 fold.
